Where two headings read alike, the source gives them in different places.
Tested on: INS-1 cells
Assay: Cell survival assay, intracellular ATP (CellTiter-Glo), INS-1 cells treated with Tm
Format: cell-based, rat
Conditions: for EC50: read-out: EC50; for improvement of EC50 value over the corresponding ethylene derivative: methylene vs ethylene linker (9e vs 8d; 11d vs 11b)
Description: A structure-activity-relationship (SAR) study was thus conducted to improve the weak potency of lead compound 1. Newly synthesized or commercially available compounds were tested for their β-cell-protective activity against ER stress in rat INS-1 β-cells. […] The maximum activities and the concentrations that reach half-maximal activity (EC50) of the compounds were evaluated by the degree of increase in viability of INS-1 cells co-treated with the compounds in the presence of Tm compared with Tm treatment alone. Maximum activity value in the tables is reported as % rescue from Tm (0.1 μg/mL)-induced reduction of cell viability. The values for Tm treatment alone and control (DMSO, without Tm) treatment are designated as 0% and 100%, respectively in all tables. EC50 values (the concentrations that reach half-maximal activity) for INS-1 cell viability were calculated with GraphPad Prism from the data of ten 2-fold serial titration points in all tables. All experiments were performed in triplicate in all tables.
INS-1 cells were cultured in RPMI 1640 (Corning, N.Y., USA) supplemented with 10% FBS (Atlanta Biologicals, Norcross, Ga.), HEPES (10 mM, Life Technologies, CA, USA), sodium pyruvate (1 mM, Corning), 2-mercaptoethanol (50 μM, Sigma, St Louis, Mo., USA) and antibiotics (100 UI/mL penicillin and 100 μg/mL streptomycin, Corning). βTC6 cells were cultured in DMEM (Corning) with 15% FBS, sodium pyruvate (1 mM, Corning), non-essential amino acids (1 mM, Thermo, Ill., USA), GlutaMAX (1 mM, Life Technologies) and antibiotics (100 UI/mL penicillin and 100 μg/mL streptomycin). All cells were grown at 37° C. in a humidified 5% CO2 atmosphere.
INS-1 cells or βTC6 cells were seeded at 3×10^3 cells/well in a 384-well plate and treated with compounds at the indicated concentrations. After 3 d treatment, the medium was aspirated and 20 μL/well of CellTiter-Glo reagent (Promega, WI, USA) was added for the detection of intracellular ATP levels. Cell viability was measured with an EnVision multilabel plate reader (PerkinElmer, MA, USA).

[1] = INS-1 cells, Tm-induced ER stress
[2] = Table 2, INS-1 cell viability, Tm 0.1 μg/mL, 72 h
[3] = Table 2, INS-1 cells, Tm 0.1 μg/mL, 72 h, Tm alone 0%, DMSO control 100%
[4] = Table 3, INS-1 cells, Tm 0.1 μg/mL, 72 h, Tm alone 0%, DMSO control 100%
[5] = Table 3, INS-1 cell viability, Tm 0.1 μg/mL, 72 h
[6] = Table 4, INS-1 cell viability, Tm 0.1 μg/mL, 72 h
[7] = Table 4, INS-1 cells, Tm 0.1 μg/mL, 72 h, Tm alone 0%, DMSO control 100%
[8] = Table 5, INS-1 cell viability, Tm 0.1 μg/mL, 72 h
[9] = Table 5, INS-1 cells, Tm 0.1 μg/mL, 72 h, Tm alone 0%, DMSO control 100%

In the case of O=C(NCCc1cccc(Cl)c1)c1ccc2c(c1)OCCO2 [Compound 1, N-(3-chlorophenethyl)-2,3-dihydrobenzo[b][1,4]dioxine-6-carboxamide], the “maximum activity (β-cell-protective activity)” value [1] is reported as 42%, the EC50 (Rattus norvegicus, INS1, INS-1 cells, Tm-induced ER stress) is reported as 21 µM and the EC50 (Rattus norvegicus, INS1, Table 1, INS-1 cell viability, Tm 0.1 μg/mL, 72 h) is reported as 21 ± 5.7 µM. It also gave an Emax (Rattus norvegicus, INS1, Table 1, INS-1 cells, Tm 0.1 μg/mL, 72 h, Tm alone 0%, DMSO control 100%, read-out: Maximum activity (% rescue)) of 42%.
With COc1ccc(C(=O)NCCc2cccc(Cl)c2)cc1OC [Compound 8h] the EC50 (Table 1, INS-1 cell viability, Tm 0.1 μg/mL, 72 h) was 24 ± 2.1 µM and the “Maximum activity (% rescue)” value (Table 1, INS-1 cells, Tm 0.1 μg/mL, 72 h, Tm alone 0%, DMSO control 100%) was 46% ± 17%.
For O=C(NCc1ccccc1Cl)c1ccc2c(c1)OCCO2 [Compound 9a], the EC50 [2] was 25 ± 6.9 µM and the “Maximum activity (% rescue)” value [3] was 43% ± 12%.
In the case of O=C(NCc1ccccc1Br)c1ccc2c(c1)OCCO2 [Compound 9b], the EC50 [2] is reported as 25 ± 2.1 µM and the “Maximum activity (% rescue)” value [3] is reported as 38% ± 14%.
O=C(NCc1cccc(Cl)c1)c1ccc2c(c1)OCCO2 [Compound 9c] was tested, and the EC50 [2] was 9.5 ± 1.2 µM and the “Maximum activity (% rescue)” value [3] was 57% ± 11%.
O=C(NCc1cccc(Br)c1)c1ccc2c(c1)OCCO2 [Compound 9d] was tested, and the EC50 [2] was 5.5 ± 0.7 µM and the “Maximum activity (% rescue)” value [3] was 69% ± 9%.
In the case of O=C(NCc1ccc(Cl)cc1)c1ccc2c(c1)OCCO2 [Compound 9e], the “maximum activity (β-cell-protective activity)” value [1] is reported as 69%, the EC50 [1] is reported as 2.8 µM and the “Maximum activity (% rescue)” value [3] is reported as 69% ± 12%. For the same molecule, the “improvement of EC50 value over the corresponding ethylene derivative” value was roughly 6 fold.
In the case of O=C(NCc1ccc(Cl)c(Cl)c1)c1ccc2c(c1)OCCO2 [Compound 9f], the EC50 [2] is reported as 3.6 ± 0.9 µM and the “Maximum activity (% rescue)” value [3] is reported as 68% ± 10%.
Cc1ccccc1C(=O)NCCc1ccccc1 [Compound 10a] was tested, and the “Maximum activity (% rescue)” value [4] was 6% ± 5%.
In the case of CC(C)Sc1ccccc1C(=O)NCCc1ccccc1 [Compound 10b], the EC50 [5] is reported as greater than 30 µM and the “Maximum activity (% rescue)” value [4] is reported as 30% ± 8%.
In the case of O=C(NCCc1ccccc1)c1cccc(F)c1 [Compound 10c], the “Maximum activity (% rescue)” value [4] is reported as less than 0 % rescue.
In the case of O=C(NCCc1ccccc1)c1cccc([N+](=O)[O-])c1 [Compound 10d], the “Maximum activity (% rescue)” value [4] is reported as less than 0 % rescue.
With Nc1cccc(C(=O)NCCc2ccccc2)c1 [Compound 10e] the “Maximum activity (% rescue)” value [4] was less than 0 % rescue.
In the case of CCOc1cccc(C(=O)NCCc2ccccc2)c1 [Compound 10f], the EC50 [5] is reported as 26 ± 4.5 µM and the “Maximum activity (% rescue)” value [4] is reported as 49% ± 11%.
With CS(=O)(=O)Nc1cccc(C(=O)NCCc2ccccc2)c1 [Compound 10g] the EC50 [5] was 25 ± 2.1 µM and the “Maximum activity (% rescue)” value [4] was 24% ± 8%.
For Cc1ccc(C(=O)NCCc2ccccc2)cc1 [Compound 10h], the EC50 [5] was 20 ± 5.4 µM and the “Maximum activity (% rescue)” value [4] was 25% ± 5%.
For C#CCOc1ccc(C(=O)NCCc2ccccc2)cc1 [Compound 10i], the EC50 [5] was greater than 30 µM and the “Maximum activity (% rescue)” value [4] was 54% ± 8%.
CN(C)S(=O)(=O)c1ccc(C(=O)NCCc2ccccc2)cc1 [Compound 10j] was tested, and the EC50 [5] was 19 ± 2.1 µM and the “Maximum activity (% rescue)” value [4] was 37% ± 6%.
With O=C(NCCc1ccccc1)c1ccc(CN2CCCC2)cc1 [Compound 10k] the “maximum activity (β-cell-protective activity)” value [1] was 31%, the EC50 [5] was 11 ± 1.9 µM and the “Maximum activity (% rescue)” value [4] was 31% ± 7%.
In the case of O=C(NCCc1ccccc1)c1ccc(CN2CCCCC2)cc1 [Compound 10l], the “maximum activity (β-cell-protective activity)” value [1] is reported as 87%, the EC50 [1] is reported as 21 µM and the EC50 [5] is reported as 21 ± 3.5 µM. For the same molecule, the “Maximum activity (% rescue)” value [4] was 87% ± 9%, the EC50 [6] was 21 ± 3.5 µM and the “Maximum activity (% rescue)” value [7] was 87% ± 6%.
With O=C(NCCc1ccccc1)c1ccc(Cl)c(Cl)c1 [Compound 10m] the EC50 [5] was 17 ± 6.1 µM and the “Maximum activity (% rescue)” value [4] was 42% ± 11%.
In the case of COc1ccc(C(=O)NCCc2ccccc2)cc1C [Compound 10n], the EC50 [5] is reported as 15 ± 3.2 µM and the “Maximum activity (% rescue)” value [4] is reported as 56% ± 8%.
With O=C(NCCc1ccccc1)c1ccc(F)c(F)c1F [Compound 10o] the EC50 [5] was 9.9 ± 2.1 µM and the “Maximum activity (% rescue)” value [4] was 23% ± 6%.
With O=C(NCCc1ccccc1)c1cc(F)c(F)c(F)c1F [Compound 10p] the “Maximum activity (% rescue)” value [4] was less than 0 % rescue.
O=C(NCCc1ccc(Cl)cc1)c1ccc(CN2CCCCC2)cc1 [Compound 11a] was tested, and the EC50 [6] was 21 ± 4.2 µM and the “Maximum activity (% rescue)” value [7] was 82% ± 10%.
O=C(NCCc1ccc(Cl)c(Cl)c1)c1ccc(CN2CCCCC2)cc1 [Compound 11b] was tested, and the EC50 [1] was 24 ± 2.7 µM and the “Maximum activity (% rescue)” value [7] was 71% ± 11%.
With O=C(NCc1ccc(Cl)cc1)c1ccc(CN2CCCCC2)cc1 [Compound 11c] the EC50 [6] was 9.5 ± 1.1 µM and the “Maximum activity (% rescue)” value [7] was 77% ± 7%.
O=C(NCc1ccc(Cl)c(Cl)c1)c1ccc(CN2CCCCC2)cc1 [Compound 11d] was tested, and the EC50 [1] was 1.8 ± 0.2 µM, the “Maximum activity (% rescue)” value [7] was 78% ± 10% and the “improvement of EC50 value over the corresponding ethylene derivative” value was 13 fold.
O=C(NCc1ccc(Cl)cc1)c1ccccc1CN1CCCCC1 [Compound 12a] was tested, and the EC50 [8] was 6.9 ± 1.2 µM and the “Maximum activity (% rescue)” value [9] was 73% ± 13%.
O=C(NCc1ccccc1)c1cccc(CN2CCCCC2)c1 [Compound 12b] was tested, and the EC50 [8] was 0.352 ± 0.062 µM and the “Maximum activity (% rescue)” value [9] was 95% ± 8%.
In the case of O=C(NCc1ccccc1Cl)c1cccc(CN2CCCCC2)c1 [Compound 12c], the EC50 [8] is reported as 2.04 ± 0.18 µM and the “Maximum activity (% rescue)” value [9] is reported as 93% ± 7%.
In the case of O=C(NCc1cccc(Cl)c1)c1cccc(CN2CCCCC2)c1 [Compound 12d], the EC50 [8] is reported as 0.405 ± 0.057 µM and the “Maximum activity (% rescue)” value [9] is reported as 90% ± 11%.
O=C(NCc1ccc(Cl)cc1)c1cccc(CN2CCCCC2)c1 [Compound 12e] was tested, and the EC50 [8] was 0.24 ± 0.06 µM and the “Maximum activity (% rescue)” value [9] was 93% ± 13%.
O=C(NCc1ccccc1Cl)c1ccc(CN2CCCCC2)cc1 [Compound 12f] was tested, and the EC50 [8] was 13 ± 1.6 µM and the “Maximum activity (% rescue)” value [9] was 87% ± 15%.
In the case of O=C(NCc1cccc(Cl)c1)c1ccc(CN2CCCCC2)cc1 [Compound 12g], the EC50 [8] is reported as 2.2 ± 0.3 µM and the “Maximum activity (% rescue)” value [9] is reported as 80% ± 9%.
In the case of O=C(NCc1cccc(Br)c1)c1ccc(CN2CCCCC2)cc1 [Compound 12h], the EC50 [8] is reported as 4.9 ± 0.7 µM and the “Maximum activity (% rescue)” value [9] is reported as 81% ± 12%.
COc1cccc(CNC(=O)c2cccc(CN3CCCCC3)c2)c1 [Compound 13a] was tested, and the EC50 [8] was 0.964 ± 0.135 µM and the “Maximum activity (% rescue)” value [9] was 92% ± 10%.
For COc1ccc(CNC(=O)c2cccc(CN3CCCCC3)c2)cc1 [Compound 13b], the EC50 [8] was 1.12 ± 0.21 µM and the “Maximum activity (% rescue)” value [9] was 93% ± 5%.
In the case of O=C(NCc1cccc(C(F)(F)F)c1)c1cccc(CN2CCCCC2)c1 [Compound 13c], the EC50 [8] is reported as 0.246 ± 0.043 µM and the “Maximum activity (% rescue)” value [9] is reported as 91% ± 14%.

Source: US11203582B2, “Benzamide derivatives for inhibiting endoplasmic reticulum (ER) stress” (The Board of Regents of the University of Oklahoma, priority 2017, dated 2021)
